Results reported in the NIST ThermoML archive (doi:10.1016/j.jct.2018.05.027).

Assay: xn = mol fraction of the nth substance listed
Settings: Liquid, Vibrating wire viscometry

CCC(C)O (stereo not drawn) [butan-2-ol] + CC(C)CC(C)(C)C
viscosity [mPa·s]
Settings | 293.15 K | 298.15 K | 313.15 K | 333.15 K | 353.15 K
100 kPa, x1 = 0.2999 | 0.6047 | – | 0.4647 | 0.3574 | 0.2785
100 kPa, x1 = 0.5001 | 0.7922 | – | 0.5643 | 0.4132 | 0.3272
100 kPa, x1 = 0.7996 | 1.673 | – | 0.9784 | 0.6203 | 0.4165
100 kPa, x1 = 1 | 3.767 | 3.102 | 1.839 | 1.007 | 0.6198
1000 kPa, x1 = 0.2999 | 0.609 | – | 0.4677 | 0.3614 | 0.2825
1000 kPa, x1 = 0.5001 | 0.797 | – | 0.5722 | 0.4166 | 0.333
1000 kPa, x1 = 0.7996 | 1.707 | – | 0.9858 | 0.631 | 0.4213
1000 kPa, x1 = 1 | 3.813 | 3.123 | 1.862 | 1.023 | 0.6273
5000 kPa, x1 = 0.2999 | 0.6391 | – | 0.4936 | 0.3814 | 0.2981
5000 kPa, x1 = 0.5001 | 0.8463 | – | 0.6074 | 0.4455 | 0.349
5000 kPa, x1 = 0.7996 | 1.793 | – | 1.043 | 0.6669 | 0.4405
5000 kPa, x1 = 1 | 3.978 | 3.28 | 1.947 | 1.078 | 0.6577
10000 kPa, x1 = 0.2999 | 0.6863 | – | 0.5264 | 0.4083 | 0.3222
10000 kPa, x1 = 0.5001 | 0.8968 | – | 0.6501 | 0.4682 | 0.373
10000 kPa, x1 = 0.7996 | 1.913 | – | 1.11 | 0.7064 | 0.4671
10000 kPa, x1 = 1 | 4.235 | 3.462 | 2.041 | 1.133 | 0.6999
20000 kPa, x1 = 0.2999 | 0.7692 | – | 0.5924 | 0.4584 | 0.3642
20000 kPa, x1 = 0.5001 | 1 | – | 0.7349 | 0.5293 | 0.4151
20000 kPa, x1 = 0.7996 | 2.14 | – | 1.253 | 0.7854 | 0.5216
20000 kPa, x1 = 1 | 4.696 | 3.873 | 2.262 | 1.254 | 0.7717
30000 kPa, x1 = 0.2999 | 0.8642 | – | 0.6612 | 0.5124 | 0.4069
30000 kPa, x1 = 0.5001 | 1.131 | – | 0.8188 | 0.6041 | 0.4619
30000 kPa, x1 = 0.7996 | 2.395 | – | 1.4 | 0.8701 | 0.5729
30000 kPa, x1 = 1 | 5.159 | 4.253 | 2.503 | 1.372 | 0.8354
40000 kPa, x1 = 0.2999 | 0.9608 | – | 0.7328 | 0.5669 | 0.4472
40000 kPa, x1 = 0.5001 | 1.247 | – | 0.9032 | 0.6689 | 0.5088
40000 kPa, x1 = 0.7996 | 2.683 | – | 1.559 | 0.9706 | 0.6309
40000 kPa, x1 = 1 | 5.693 | 4.697 | 2.734 | 1.491 | 0.9088
50000 kPa, x1 = 0.2999 | 1.065 | – | 0.8134 | 0.6217 | 0.4904
50000 kPa, x1 = 0.5001 | 1.385 | – | 0.987 | 0.7304 | 0.5576
50000 kPa, x1 = 0.7996 | 2.993 | – | 1.707 | 1.07 | 0.6907
50000 kPa, x1 = 1 | 6.274 | 5.142 | 2.99 | 1.624 | 0.9898
60000 kPa, x1 = 0.2999 | 1.173 | – | 0.8859 | 0.6795 | 0.54
60000 kPa, x1 = 0.5001 | 1.541 | – | 1.082 | 0.7967 | 0.6147
60000 kPa, x1 = 0.7996 | 3.276 | – | 1.869 | 1.172 | 0.7546
60000 kPa, x1 = 1 | 6.831 | 5.553 | 3.237 | 1.759 | 1.07
70000 kPa, x1 = 0.2999 | 1.282 | – | 0.9597 | 0.7435 | 0.5886
70000 kPa, x1 = 0.5001 | 1.7 | – | 1.179 | 0.8604 | 0.6678
70000 kPa, x1 = 0.7996 | 3.645 | – | 2.049 | 1.271 | 0.8214
70000 kPa, x1 = 1 | 7.377 | 6.044 | 3.558 | 1.905 | 1.151
80000 kPa, x1 = 0.2999 | 1.395 | – | 1.04 | 0.8018 | 0.6326
80000 kPa, x1 = 0.5001 | 1.853 | – | 1.272 | 0.9339 | 0.7221
80000 kPa, x1 = 0.7996 | 3.939 | – | 2.23 | 1.387 | 0.8973
80000 kPa, x1 = 1 | 8.056 | 6.544 | 3.841 | 2.081 | 1.242
100000 kPa, x1 = 0.2999 | 1.66 | – | 1.223 | 0.9315 | 0.7318
100000 kPa, x1 = 0.5001 | 2.169 | – | 1.509 | 1.089 | 0.8402
100000 kPa, x1 = 0.7996 | 4.702 | – | 2.621 | 1.613 | 1.046
100000 kPa, x1 = 1 | 9.598 | 7.646 | 4.456 | 2.427 | 1.444
120000 kPa, x1 = 0.2999 | 1.925 | – | 1.414 | 1.057 | 0.8276
120000 kPa, x1 = 0.5001 | 2.516 | – | 1.74 | 1.236 | 0.9461
120000 kPa, x1 = 0.7996 | 5.445 | – | 3.051 | 1.831 | 1.206
120000 kPa, x1 = 1 | 11.31 | 9.053 | 5.179 | 2.716 | 1.644
140000 kPa, x1 = 0.2999 | 2.24 | – | 1.598 | 1.196 | 0.9377
140000 kPa, x1 = 0.5001 | 2.913 | – | 1.973 | 1.408 | 1.069
140000 kPa, x1 = 0.7996 | 6.323 | – | 3.552 | 2.083 | 1.367
140000 kPa, x1 = 1 | 13.38 | 10.43 | 5.933 | 3.099 | 1.845
